Laboratory results reported in PubChem BioAssay (NCI).
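Cultured in 96-well plates, cells were exposed to test compound for 48 hours across five concentrations. The concentration for full growth arrest is given as TGI.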

Experiments:
Test in all cases: DTP human tumour cell line panel, 48 h
SN12C renal = system: SN12C renal
SK-OV-3 ovarian = system: SK-OV-3 ovarian
SK-MEL-5 melanoma = system: SK-MEL-5 melanoma
A498 renal = system: A498 renal
NCI/ADR-RES ovarian = system: NCI/ADR-RES ovarian
NCI-H460 lung = system: NCI-H460 lung
BT-549 breast = system: BT-549 breast
MDA-MB-231 breast = system: MDA-MB-231 breast
MDA-MB-435 = system: MDA-MB-435
NCI-H23 lung = system: NCI-H23 lung
OVCAR-8 ovarian = system: OVCAR-8 ovarian
HS 578T breast = system: HS 578T breast
SF-539 CNS = system: SF-539 CNS
SNB-19 CNS = system: SNB-19 CNS
M14 melanoma = system: M14 melanoma
ACHN renal = system: ACHN renal
K-562 leukemia = system: K-562 leukemia
HCT-116 colon = system: HCT-116 colon
MCF7 breast = system: MCF7 breast
U251 CNS = system: U251 CNS
UACC-62 melanoma = system: UACC-62 melanoma
DU-145 prostate = system: DU-145 prostate
EKVX NSCLC = system: EKVX NSCLC
MOLT-4 leukemia = system: MOLT-4 leukemia
UACC-257 melanoma = system: UACC-257 melanoma
HL-60(TB) leukemia = system: HL-60(TB) leukemia
NCI-H226 lung = system: NCI-H226 lung
SR leukemia = system: SR leukemia
OVCAR-4 ovarian = system: OVCAR-4 ovarian
LOX IMVI melanoma = system: LOX IMVI melanoma
CAKI-1 renal = system: CAKI-1 renal
T-47D breast = system: T-47D breast
OVCAR-3 ovarian = system: OVCAR-3 ovarian
HCT-15 colon = system: HCT-15 colon
RXF 393 renal = system: RXF 393 renal
SK-MEL-2 melanoma = system: SK-MEL-2 melanoma
MDA-N = system: MDA-N
NCI-H522 lung = system: NCI-H522 lung
HOP-62 NSCLC = system: HOP-62 NSCLC
MALME-3M melanoma = system: MALME-3M melanoma
SW-620 colon = system: SW-620 colon
SK-MEL-28 melanoma = system: SK-MEL-28 melanoma
SF-268 CNS = system: SF-268 CNS
786-0 renal = system: 786-0 renal
KM12 colon = system: KM12 colon
OVCAR-5 ovarian = system: OVCAR-5 ovarian
RPMI-8226 leukemia = system: RPMI-8226 leukemia
HOP-92 NSCLC = system: HOP-92 NSCLC
A549 NSCLC = system: A549 NSCLC
UO-31 renal = system: UO-31 renal
TK-10 renal = system: TK-10 renal
IGROV1 ovarian = system: IGROV1 ovarian
CCRF-CEM leukemia = system: CCRF-CEM leukemia
PC-3 prostate = system: PC-3 prostate
SF-295 CNS = system: SF-295 CNS
HCC-2998 colon = system: HCC-2998 colon
HT29 colon = system: HT29 colon
SNB-75 CNS = system: SNB-75 CNS
COLO 205 colon = system: COLO 205 colon

SMILES: CCOC(=O)c1sc2nc(SC)nc3c2c1NCN3c1ccc2c(c1)OCCCO2
- TGI (SN12C renal): > 100 µM
- TGI (SK-OV-3 ovarian): 75.7 µM
- TGI (SK-MEL-5 melanoma): > 100 µM
- TGI (A498 renal): 45.8 µM
- TGI (NCI/ADR-RES ovarian): > 100 µM
- TGI (NCI-H460 lung): > 100 µM
- TGI (BT-549 breast): > 100 µM
- TGI (MDA-MB-231 breast): > 100 µM
- TGI (MDA-MB-435): > 100 µM
- TGI (NCI-H23 lung): > 100 µM
- TGI (OVCAR-8 ovarian): > 100 µM
- TGI (HS 578T breast): 37 µM
- TGI (SF-539 CNS): 53.9 µM
- TGI (SNB-19 CNS): > 100 µM
- TGI (M14 melanoma): > 100 µM
- TGI (ACHN renal): > 100 µM
- TGI (K-562 leukemia): > 100 µM
- TGI (HCT-116 colon): > 100 µM
- TGI (MCF7 breast): > 100 µM
- TGI (U251 CNS): 57.7 µM
- TGI (UACC-62 melanoma): > 100 µM
- TGI (DU-145 prostate): > 100 µM
- TGI (EKVX NSCLC): > 100 µM
- TGI (MOLT-4 leukemia): > 100 µM
- TGI (UACC-257 melanoma): > 100 µM
- TGI (HL-60(TB) leukemia): > 100 µM
- TGI (NCI-H226 lung): > 100 µM
- TGI (SR leukemia): > 100 µM
- TGI (OVCAR-4 ovarian): > 100 µM
- TGI (LOX IMVI melanoma): > 100 µM
- TGI (CAKI-1 renal): > 100 µM
- TGI (T-47D breast): > 100 µM
- TGI (OVCAR-3 ovarian): 93.9 µM
- TGI (HCT-15 colon): > 100 µM
- TGI (RXF 393 renal): 35.6 µM
- TGI (SK-MEL-2 melanoma): > 100 µM
- TGI (MDA-N): > 100 µM
- TGI (NCI-H522 lung): > 100 µM
- TGI (HOP-62 NSCLC): > 100 µM
- TGI (MALME-3M melanoma): > 100 µM
- TGI (SW-620 colon): > 100 µM
- TGI (SK-MEL-28 melanoma): > 100 µM
- TGI (SF-268 CNS): > 100 µM
- TGI (786-0 renal): 26.8 µM
- TGI (KM12 colon): > 100 µM
- TGI (OVCAR-5 ovarian): > 100 µM
- TGI (RPMI-8226 leukemia): > 100 µM
- TGI (HOP-92 NSCLC): > 100 µM
- TGI (A549 NSCLC): > 100 µM
- TGI (UO-31 renal): > 100 µM
- TGI (TK-10 renal): > 100 µM
- TGI (IGROV1 ovarian): > 100 µM
- TGI (CCRF-CEM leukemia): > 100 µM
- TGI (PC-3 prostate): > 100 µM
- TGI (SF-295 CNS): 5.1 µM
- TGI (HCC-2998 colon): > 100 µM

SMILES: CCCc1c(O)c(=O)c2c(OC)cc(OC)c3c4c(OC)cc(OC)c5c(=O)c(O)c(CCC)c(c1c23)c54
- TGI (SN12C renal): 22.3 µM
- TGI (SK-OV-3 ovarian): 2.96 µM
- TGI (HT29 colon): 6.75 µM
- TGI (SK-MEL-5 melanoma): 1.91 µM
- TGI (A498 renal): 11.9 µM
- TGI (NCI/ADR-RES ovarian): 3.55 µM
- TGI (NCI-H460 lung): 2.31 µM
- TGI (BT-549 breast): 10.1 µM
- TGI (MDA-MB-231 breast): 7.09 µM
- TGI (MDA-MB-435): 10.4 µM
- TGI (NCI-H23 lung): 3.16 µM
- TGI (OVCAR-8 ovarian): 3.38 µM
- TGI (HS 578T breast): 72.2 µM
- TGI (SF-539 CNS): 11.3 µM
- TGI (SNB-19 CNS): 12.7 µM
- TGI (M14 melanoma): 8.65 µM
- TGI (ACHN renal): 3.58 µM
- TGI (K-562 leukemia): 0.589 µM
- TGI (HCT-116 colon): 1.23 µM
- TGI (MCF7 breast): 15.3 µM
- TGI (U251 CNS): 11.3 µM
- TGI (UACC-62 melanoma): 1.88 µM
- TGI (DU-145 prostate): 3.73 µM
- TGI (EKVX NSCLC): 6.66 µM
- TGI (MOLT-4 leukemia): 1.23 µM
- TGI (UACC-257 melanoma): 7.06 µM
- TGI (SNB-75 CNS): 3.53 µM
- TGI (HL-60(TB) leukemia): 4.64 µM
- TGI (NCI-H226 lung): 10.9 µM
- TGI (SR leukemia): 0.463 µM
- TGI (OVCAR-4 ovarian): 14.1 µM
- TGI (LOX IMVI melanoma): 1.86 µM
- TGI (CAKI-1 renal): 2.32 µM
- TGI (T-47D breast): 5.73 µM
- TGI (OVCAR-3 ovarian): > 27.7 µM
- TGI (HCT-15 colon): 11.6 µM
- TGI (RXF 393 renal): 28 µM
- TGI (SK-MEL-2 melanoma): 8.71 µM
- TGI (MDA-N): 12.2 µM
- TGI (NCI-H522 lung): 1.15 µM
- TGI (HOP-62 NSCLC): 8.11 µM
- TGI (SW-620 colon): 12.2 µM
- TGI (SK-MEL-28 melanoma): 19.1 µM
- TGI (COLO 205 colon): 8.94 µM
- TGI (SF-268 CNS): 19.5 µM
- TGI (786-0 renal): 9.59 µM
- TGI (KM12 colon): 5.41 µM
- TGI (OVCAR-5 ovarian): 19.4 µM
- TGI (RPMI-8226 leukemia): 1.11 µM
- TGI (HOP-92 NSCLC): 2.55 µM
- TGI (A549 NSCLC): 13.1 µM
- TGI (UO-31 renal): 3.35 µM
- TGI (TK-10 renal): 15.8 µM
- TGI (IGROV1 ovarian): 3.97 µM
- TGI (CCRF-CEM leukemia): 0.582 µM
- TGI (PC-3 prostate): 18.2 µM
- TGI (SF-295 CNS): 12.2 µM
- TGI (HCC-2998 colon): 17.1 µM
